Test results from patent US9771334B2, “Triketone compound and preparation method and use thereof” (SHANDONG CYNDA CHEMICAL CO., LTD., priority 2013, dated 2017).

Columns and labels:
Assay type in all cases: in vivo
abutilon theophrasti = experiment: Herbicidal activity, pot culture method (primary and secondary screening test); conditions: sprayed at 3-leaf stage; for inhibition ratio, Abutilon theophrasti: investigated 15 days later; for herbicidal activity inhibition ratio (%), Abutilon theophrasti: primary screening, pot culture, 150 g/ha, result 15 days later
How it was run: (§1)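 Inhibition ratio (%) was scored 15 days after post-emergence spraying of 3-leaf-stage weeds grown in pots of soil:seedling matrix (1:2). Dose was 150 g/ha from a 0.2 g/L DMF/water solution applied by spray tower. The secondary screening used the same method at a reduced dose.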

amaranthus retroflexus = experiment: as above; conditions: sprayed at 3-leaf stage; for inhibition ratio, Amaranthus retroflexus: investigated 15 days later; for herbicidal activity inhibition ratio (%), Amaranthus retroflexus: primary screening, pot culture, 150 g/ha, result 15 days later
How it was run: as §1

digitaria sanguinalis = experiment: as above; conditions: sprayed at 3-leaf stage; for inhibition ratio, Digitaria sanguinalis: investigated 15 days later; for herbicidal activity inhibition ratio (%), Digitaria sanguinalis: primary screening, pot culture, 150 g/ha, result 15 days later
How it was run: as §1

echinochloa crusgalli = experiment: as above; conditions: sprayed at 3-leaf stage; for inhibition ratio, Echinochloa crusgalli: investigated 15 days later; for herbicidal activity inhibition ratio (%), Echinochloa crusgalli: primary screening, pot culture, 150 g/ha, result 15 days later
How it was run: as §1

eclipta prostrata = experiment: as above; conditions: sprayed at 3-leaf stage; for inhibition ratio, Eclipta prostrata: investigated 15 days later; for herbicidal activity inhibition ratio (%), Eclipta prostrata: primary screening, pot culture, 150 g/ha, result 15 days later
How it was run: as §1

setaria viridis = experiment: as above; conditions: for inhibition ratio, Setaria viridis / herbicidal activity inhibition ratio (%), Setaria viridis: sprayed at 3-leaf stage; for inhibition ratio, Setaria viridis: investigated 15 days later; for herbicidal activity inhibition ratio (%), Setaria viridis: primary screening, pot culture, 150 g/ha, result 15 days later
How it was run: as §1

maize = experiment: Crop safety test (pot culture method); conditions: plants with about 4-5 leaves, investigated 15 days later
Text: (§2) This test example is for describing crop safety of the compound with a structure shown in Formula (1). Crop safety test method (pot culture method): The test targets are wheat and maize. Take flowerpots with an inner diameter of 12 cm, put composite soil (vegetable garden soil:seedling matrix=1:2, v/v) into them till ¾ of flowerpot height, directly sow the crop seeds (budding rate>85%), cover them with 0.2 cm thick soil, and keep the plants for future use when they grow to have about 4-5 leaves. Each compound is dissolved in N,N-dimethylformamide at doses of 75 g/ha or 150 g/ha and diluted with distilled water containing 0.1% tween-80 emulsifier to form 0.1 g/L (75 g/ha) solution and 0.2 g/L (150 g/ha) solution respectively. The solutions are sprayed through an automatic spray tower. After the solutions on weed leaves are dried in the air, the flowerpots are moved into a greenhouse for cultivation. The result is investigated 15 days later.

wheat = experiment: Crop safety test (pot culture method); conditions: plants with about 4-5 leaves, investigated 15 days later
Text: as §2

Row | SMILES | inhibition ratio, Abutilon theophrasti (abutilon theophrasti; dose 37.5 g/ha) [%] | inhibition ratio, Abutilon theophrasti (abutilon theophrasti; dose 75 g/ha) [%] | herbicidal activity inhibition ratio (%), Abutilon theophrasti (abutilon theophrasti) [%] | inhibition ratio, Amaranthus retroflexus (amaranthus retroflexus; dose 37.5 g/ha) [%] | inhibition ratio, Amaranthus retroflexus (amaranthus retroflexus; dose 75 g/ha) [%] | herbicidal activity inhibition ratio (%), Amaranthus retroflexus (amaranthus retroflexus) [%] | inhibition ratio, Digitaria sanguinalis (digitaria sanguinalis; dose 37.5 g/ha) [%] | inhibition ratio, Digitaria sanguinalis (digitaria sanguinalis; dose 75 g/ha) [%] | herbicidal activity inhibition ratio (%), Digitaria sanguinalis (digitaria sanguinalis) [%] | inhibition ratio, Echinochloa crusgalli (echinochloa crusgalli; dose 37.5 g/ha) [%] | inhibition ratio, Echinochloa crusgalli (echinochloa crusgalli; dose 75 g/ha) [%] | herbicidal activity inhibition ratio (%), Echinochloa crusgalli (echinochloa crusgalli) [%] | inhibition ratio, Eclipta prostrata (eclipta prostrata; dose 37.5 g/ha) [%] | inhibition ratio, Eclipta prostrata (eclipta prostrata; dose 75 g/ha) [%] | inhibition ratio, Setaria viridis (setaria viridis; dose 37.5 g/ha) [%] | inhibition ratio, Setaria viridis (setaria viridis; dose 75 g/ha) [%] | inhibition ratio, Maize (crop safety) (maize; dose 75 g/ha) [%] | inhibition ratio, Maize (crop safety) (maize; dose 150 g/ha) [%] | inhibition ratio, Wheat (crop safety) (wheat; dose 75 g/ha) [%] | inhibition ratio, Wheat (crop safety) (wheat; dose 150 g/ha) [%] | further results
1 | CCn1c(=O)n(-c2ccccc2C)c(=O)c2cc(C(=O)C3=C(O)CCCC3=O)ccc21 [Compound 66] | 100 | 100 | 100 | 90 | 100 | 93 | 60 | 97.5 | 95 | 100 | 100 | 100 | 95 | 100 | 97.5 | 100 | 0 | 5 | 0 | 10 | herbicidal activity inhibition ratio (%), Eclipta prostrata (eclipta prostrata): 95%; herbicidal activity inhibition ratio (%), Setaria viridis (setaria viridis): 100%
2 | CS(=O)(=O)c1ccc(C(=O)C2C(=O)CCCC2=O)c([N+](=O)[O-])c1 [Mesotrione, mesotrione, reference compound] | 100 | 100 |  | 70 | 75 |  | 40 | 70 |  | 50 | 70 |  | 75 | 85 | 0 | 0 | 7 | 15 | 10 | 40 | prevention and control of setaria viridis (in words) (setaria viridis; secondary screening, 37.5 and 75 g/ha): cannot be prevented and controlled
3 | Cc1ccccc1-n1c(=O)c2cc(C(=O)C3=C(O)CC(C)(C)CC3=O)ccc2n(C)c1=O [Compound 21] | 70 | 100 | 85 | 80 | 90 | 100 | 70 | 75 | 85 | 70 | 75 | 85 | 40 | 50 | 70 | 75 | 0 | 15 | 0 | 0 | herbicidal activity inhibition ratio (%), Eclipta prostrata (eclipta prostrata): 95%; herbicidal activity inhibition ratio (%), Setaria viridis (setaria viridis): 100%
